From PubChem BioAssay (NCI)
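Values below derive from 48-hour exposures of cells grown in 96-well plates, with endpoints linearly interpolated between the two concentrations bracketing the appropriate inhibition level. GI50 is the concentration that inhibits growth by half. TGI: total growth inhibition.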

Key:
Assay in all cases: inhibition of tumour cell growth, NCI panel, 48 h
786-0 renal = system: 786-0 renal
A498 renal = system: A498 renal
A549 NSCLC = system: A549 NSCLC
ACHN renal = system: ACHN renal
BT-549 breast = system: BT-549 breast
CAKI-1 renal = system: CAKI-1 renal
CCRF-CEM leukemia = system: CCRF-CEM leukemia
COLO 205 colon = system: COLO 205 colon
DU-145 prostate = system: DU-145 prostate
EKVX NSCLC = system: EKVX NSCLC
HCC-2998 colon = system: HCC-2998 colon
HCT-116 colon = system: HCT-116 colon
HCT-15 colon = system: HCT-15 colon
HL-60(TB) leukemia = system: HL-60(TB) leukemia
HOP-62 NSCLC = system: HOP-62 NSCLC
HOP-92 NSCLC = system: HOP-92 NSCLC
HS 578T breast = system: HS 578T breast
HT29 colon = system: HT29 colon
IGROV1 ovarian = system: IGROV1 ovarian
K-562 leukemia = system: K-562 leukemia
KM12 colon = system: KM12 colon
LOX IMVI melanoma = system: LOX IMVI melanoma
M14 melanoma = system: M14 melanoma
MALME-3M melanoma = system: MALME-3M melanoma
MCF7 breast = system: MCF7 breast
MDA-MB-231 breast = system: MDA-MB-231 breast
MDA-MB-435 = system: MDA-MB-435
MDA-MB-468 breast = system: MDA-MB-468 breast
MOLT-4 leukemia = system: MOLT-4 leukemia

Question: `CC[C@]12C=CCN3CC[C@@]4(c5ccc(OC)cc5N(C)[C@H]4[C@@](O)(C(=O)OC)[C@@H]1OC(=O)CCC[P+](c1ccc(OC)cc1)(c1ccc(OC)cc1)c1ccc(OC)cc1)[C@@H]32` was tested. Which GI50 (786-0 renal) did it give?
Answer: 1530 nM

Question: And the TGI (786-0 renal)?
Answer: 3370 nM

Question: And the GI50 (A498 renal)?
Answer: 2020 nM

Question: What about the TGI (A498 renal) of the same molecule?
Answer: 5670 nM

Question: What about the GI50 (A549 NSCLC) of the same molecule?
Answer: 591 nM

Question: What about the TGI (A549 NSCLC) of the same molecule?
Answer: 4390 nM

Question: And the GI50 (ACHN renal)?
Answer: 2760 nM

Question: And the TGI (ACHN renal)?
Answer: 7890 nM

Question: And the GI50 (BT-549 breast)?
Answer: 532 nM

Question: And the TGI (BT-549 breast)?
Answer: 1350 nM

Question: And the GI50 (CAKI-1 renal)?
Answer: 4360 nM

Question: What about the TGI (CAKI-1 renal) of the same molecule?
Answer: 9190 nM

Question: What about the GI50 (CCRF-CEM leukemia) of the same molecule?
Answer: 582 nM

Question: What about the TGI (CCRF-CEM leukemia) of the same molecule?
Answer: 2020 nM

Question: And the GI50 (COLO 205 colon)?
Answer: 192 nM

Question: And the TGI (COLO 205 colon)?
Answer: 369 nM

Question: And the GI50 (DU-145 prostate)?
Answer: 635 nM

Question: What about the TGI (DU-145 prostate) of the same molecule?
Answer: 4340 nM

Question: What about the GI50 (EKVX NSCLC) of the same molecule?
Answer: 737 nM

Question: And the TGI (EKVX NSCLC)?
Answer: 3350 nM

Question: And the GI50 (HCC-2998 colon)?
Answer: 446 nM

Question: And the TGI (HCC-2998 colon)?
Answer: 1570 nM

Question: What about the GI50 (HCT-116 colon) of the same molecule?
Answer: 469 nM

Question: What about the TGI (HCT-116 colon) of the same molecule?
Answer: 1660 nM

Question: And the GI50 (HCT-15 colon)?
Answer: 2510 nM

Question: And the TGI (HCT-15 colon)?
Answer: 7000 nM

Question: What about the GI50 (HL-60(TB) leukemia) of the same molecule?
Answer: 237 nM

Question: And the TGI (HL-60(TB) leukemia)?
Answer: 800 nM

Question: And the GI50 (HOP-62 NSCLC)?
Answer: 1040 nM

Question: And the TGI (HOP-62 NSCLC)?
Answer: 2670 nM

Question: What about the GI50 (HOP-92 NSCLC) of the same molecule?
Answer: 279 nM

Question: What about the TGI (HOP-92 NSCLC) of the same molecule?
Answer: 1080 nM

Question: What about the GI50 (HS 578T breast) of the same molecule?
Answer: 1180 nM

Question: And the TGI (HS 578T breast)?
Answer: 3970 nM

Question: And the GI50 (HT29 colon)?
Answer: 284 nM

Question: What about the TGI (HT29 colon) of the same molecule?
Answer: 859 nM

Question: What about the GI50 (IGROV1 ovarian) of the same molecule?
Answer: 455 nM

Question: What about the TGI (IGROV1 ovarian) of the same molecule?
Answer: 1600 nM

Question: What about the GI50 (K-562 leukemia) of the same molecule?
Answer: 556 nM

Question: And the TGI (K-562 leukemia)?
Answer: 2130 nM

Question: What about the GI50 (KM12 colon) of the same molecule?
Answer: 464 nM

Question: What about the TGI (KM12 colon) of the same molecule?
Answer: 1560 nM

Question: And the GI50 (LOX IMVI melanoma)?
Answer: 490 nM

Question: And the TGI (LOX IMVI melanoma)?
Answer: 1590 nM

Question: And the GI50 (M14 melanoma)?
Answer: 638 nM

Question: And the TGI (M14 melanoma)?
Answer: 1870 nM

Question: And the GI50 (MALME-3M melanoma)?
Answer: 224 nM

Question: And the TGI (MALME-3M melanoma)?
Answer: 536 nM

Question: What about the GI50 (MCF7 breast) of the same molecule?
Answer: 383 nM

Question: What about the TGI (MCF7 breast) of the same molecule?
Answer: 1430 nM

Question: What about the GI50 (MDA-MB-231 breast) of the same molecule?
Answer: 254 nM

Question: And the TGI (MDA-MB-231 breast)?
Answer: 654 nM

Question: And the GI50 (MDA-MB-435)?
Answer: 381 nM

Question: What about the TGI (MDA-MB-435) of the same molecule?
Answer: 1420 nM

Question: And the GI50 (MDA-MB-468 breast)?
Answer: 166 nM

Question: And the TGI (MDA-MB-468 breast)?
Answer: 491 nM

Question: What about the GI50 (MOLT-4 leukemia) of the same molecule?
Answer: 621 nM
